From ChEMBL document CHEMBL1671629, “Penetration of chlorhexidine into human skin” (Antimicrob Agents Chemother, 2008)

Assays:
Type in all cases: ADME, tissue-based
Zone of skin [1] = assay: Drug permeation in deeper <300 micrometer sections of human skin using Franz-cell skin model assessed as compound penetration per mg tissue exposed to 2% wt/vol of compound administered topically measured after 24 hrs exposure by HPLC
Zone of skin [2] = assay: Drug permeation in top 100 micrometer sections of human skin using Franz-cell skin model assessed as compound penetration per mg tissue exposed to 2% wt/vol of compound administered topically measured after 24 hrs exposure by HPLC
Zone of skin [3] = assay: Drug permeation in top 100 micrometer sections of human skin using Franz-cell skin model assessed as compound penetration per mg tissue exposed to 2% wt/vol of compound administered topically measured after 30 mins exposure by HPLC; conditions: 0.5 h
Zone of skin [4] = assay: Drug permeation in top 100 micrometer sections of human skin using Franz-cell skin model assessed as compound penetration per mg tissue exposed to 2% wt/vol of compound administered topically measured after 2 mins exposure by HPLC
Zone of skin [5] = assay: Drug permeation in deeper <300 micrometer sections of human skin using Franz-cell skin model assessed as compound penetration per mg tissue exposed to 2% wt/vol of compound administered topically measured after 30 mins exposure by HPLC; conditions: 0.5 h
Zone of skin [6] = assay: Drug permeation in deeper <300 micrometer sections of human skin using Franz-cell skin model assessed as compound penetration per mg tissue exposed to 2% wt/vol of compound administered topically measured after 2 mins exposure by HPLC

N=C(NCCCCCCNC(=N)NC(=N)Nc1ccc(Cl)cc1)NC(=N)Nc1ccc(Cl)cc1.O=C(O)[C@H](O)[C@@H](O)[C@H](O)[C@H](O)CO
Drug uptake (Zone of skin [1]): < 1 µg
tissue concentration (Zone of skin [2]): 7.88 µg/mg
tissue concentration (Zone of skin [3]): 0.077 µg/mg
tissue concentration (Zone of skin [4]): 0.157 µg/mg
Drug uptake (Zone of skin [5]): < 0.002 µg
Drug uptake (Zone of skin [6]): < 0.002 µg
